In patent US4450162A, “Pyrimidine derivatives and a pharmaceutical composition containing them” (Sankyo Company, Limited, priority 1981, dated 1984):
Where a name gives a salt, the structure may show the parent alone.

Experiments:
[1] = Antidepressant activity (general statement); details: in vivo
reserpine-induced ptosis = assay: Test for anti-reserpine activity (inhibition of reserpine-induced ptosis); format: in vivo, male mice of the ddy strain; details: Mus musculus, po, read-out: Reserpine inhibition (percentage inhibition of reserpine-induced ptosis); for inhibition in vivo at 50 mg/kg: 50 mg/kg orally, reserpine 2 mg/kg s.c., sum of observations at 90, 120 and 180 min, groups of three mice
Experimental: 1 Test for anti-reserpine activity
The test animals used were male mice of the ddy strain, each weighing 23-25 g. Each compound was tested on a group of three such mice. Each test compound was employed in the form of a solution or suspension in a physiological saline solution containing 0.3% w/v carboxymethylcellulose. The test employed was a partial modification of the method of Rubin et al. [J. Pharmacol. Exptl.
At each observation, each mouse was assigned from 0 to 3 points corresponding to the degree of ptosis, as follows:
0 points: eyes completely open;
1 point: eyes about one third closed;
2 points: eyes about two thirds closed;
3 points: eyes completely closed.
For each mouse, the number of points from all three observations were added together and the percentage inhibition of reserpine-induced ptosis was calculated from the following formula: [formula] in which:
Po =total number of points from three observations of an animal to which reserpine alone was administered; and
Pt =total number of points from three observations of an animal to which reserpine and the test compound were administered.

Acute toxicity test = format: in vivo, male mice of the ddy strain; details: for Mortality (deaths/animals tested): 7 days observation
Experimental: The test animals used were male mice of the ddy strain, each weighing from 21 to 25 g. To each animal was administered orally a single dose of the test compound in the amount shown in Table 2; the animals were then placed under observation for 7 days after administration. The results are reported in Table 2 as "Mortality", where the numerator indicates the number of deaths in the observation period and the denominator indicates the number of animals tested with the particular test compound at the particular dose.

effects of d-amphetamine = assay: Potentiation of d-Amphetamine effects; format: in vivo, male rats of the Wistar strain; details: 10 mg/kg orally, 60 min before d-amphetamine sulphate 2.5 mg/kg s.c.; observations 30-240 min; groups of 4 rats
Experimental: 2. Potentiation of d-Amphetamine effects
The test animals used in this experiment were male rats of the Wistar strain, each weighing from 250 to 300 g. The rats were employed in groups of 4 animals each, for each test. The test compound was employed in the form of a solution or suspension in physiological saline containing 0.3% w/v carboxymethylcellulose.
Each rat was placed in an observation cage and then given orally the solution or suspension of the test compound in an amount of 10 mg of test compound per kilogram body weight; 60 minutes later, 2.5 mg/kg of d-amphetamine sulphate were injected subcutaneously. The rats were observed 30 minutes, 60 minutes, 90 minutes, 120 minutes, 150 minutes, 180 minutes and 240 minutes after the injection of the d-amphetamine sulphate. At each observation, each animal was assigned from 0 to 5 points according to its mobility, as follows:
1 point: slight moving around;
3 points: sniffing appears;
4 points: licking appears;
5 points: biting appears.
The percentage potentiation of the effects of d-amphetamine was then calculated from the following formula: [formula] where:
P'o =total number of points from all observations of an animal to which d-amphetamine alone was administered; and
P't =total number of points from all seven observations of an animal to which both the test compound and d-amphetamine were administered.

SMILES: Cc1ncnc(Nc2ccccc2)c1Br [4-anilino-5-bromo-6-methylpyrimidine]
- antidepressant activity [1]: no antidepressant activity

SMILES: c1ccc(Nc2ncnc3c2CCC3)cc1 [Compound No. 2, 4-Anilino-6,7-dihydro-5H-cyclopenta[d]pyrimidine hydrochloride]
- inhibition in vivo at 50 mg/kg (reserpine-induced ptosis): 68.7%

SMILES: Clc1ccc(Nc2ncnc3c2CCC3)cc1 [Compound No. 3, 4-(4-Chloroanilino)-6,7-dihydro-5H-cyclopenta[d]pyrimidine]
- inhibition in vivo at 50 mg/kg (reserpine-induced ptosis): 82.3%

SMILES: Brc1ccc(Nc2ncnc3c2CCC3)cc1 [Compound No. 5, 4-(4-Bromoanilino)-6,7-dihydro-5H-cyclopenta[d]pyrimidine]
- Mortality (deaths/animals tested) (Acute toxicity test; single oral dose 500 mg/kg): 0/5
- Mortality (deaths/animals tested) (Acute toxicity test; single oral dose 1000 mg/kg): 0/5
- inhibition in vivo at 50 mg/kg (reserpine-induced ptosis): 75.6%

SMILES: N#Cc1ccc(Nc2ncnc3c2CCC3)cc1 [Compound No. 14, 4-(4-Cyanoanilino)-6,7-dihydro-5H-cyclopenta[d]pyrimidine]
- inhibition in vivo at 25 mg/kg (reserpine-induced ptosis): 85%

SMILES: Cc1ncnc(Nc2ccc(Cl)cc2)c1C [Compound No. 25, 4-(4-Chloroanilino)-5,6-dimethylpyrimidine]
- d-Amphetamine potentiation (percentage potentiation of the effects of d-amphetamine) (effects of d-amphetamine): 75%
- inhibition in vivo at 50 mg/kg (reserpine-induced ptosis): 61.1%

SMILES: Cc1ncnc(Nc2ccc(Br)cc2)c1C [Compound No. 28, 4-(4-Bromoanilino)-5,6-dimethylpyrimidine]
- Mortality (deaths/animals tested) (Acute toxicity test; single oral dose 1000 mg/kg): 0/5
- d-Amphetamine potentiation (percentage potentiation of the effects of d-amphetamine) (effects of d-amphetamine): 79%
- inhibition in vivo at 50 mg/kg (reserpine-induced ptosis): 61.1%

SMILES: Cc1ncnc(Nc2ccc(C(F)(F)F)cc2)c1C [Compound No. 38, 5,6-Dimethyl-4-(4-trifluoromethylanilino)pyrimidine]
- inhibition in vivo at 50 mg/kg (reserpine-induced ptosis): 68.8%

SMILES: Cc1ncnc(Nc2ccc(C(C)C)cc2)c1C [Compound No. 47, 4-(4-Isopropylanilino)-5,6-dimethylpyrimidine]
- inhibition in vivo at 50 mg/kg (reserpine-induced ptosis): 70.6%

SMILES: CN(C)CCCN1c2ccccc2CCc2ccccc21 [Imipramine hydrochloride, reference compound]
- Mortality (deaths/animals tested) (Acute toxicity test; single oral dose 500 mg/kg): 3/5
- Mortality: deaths on day 3 (Acute toxicity test; single oral dose 500 mg/kg, on day 3): 1
- Mortality: deaths within 1 hour (Acute toxicity test; single oral dose 500 mg/kg, within 1 hour): 2
- d-Amphetamine potentiation (percentage potentiation of the effects of d-amphetamine) (effects of d-amphetamine): 77%
- inhibition in vivo at 50 mg/kg (reserpine-induced ptosis): 72.2%

SMILES: CCc1ccc(Nc2ncnc3c2CCC3)cc1 [compound 9, 4-(4-Ethylanilino)-6,7-dihydro-5H-cyclopenta[d]pyrimidine]
- inhibition in vivo at 50 mg/kg (reserpine-induced ptosis): 82.3%

SMILES: FC(F)(F)c1ccc(Nc2ncnc3c2CCC3)cc1 [compound 11, 4-(4-Trifluoromethylanilino)-6,7-dihydro-5H-cyclopenta[d]pyrimidine]
- inhibition in vivo at 50 mg/kg (reserpine-induced ptosis): 62.5%

SMILES: Cc1ncnc(Nc2ccc(I)cc2)c1C [compound 32, 4-(4-Iodoanilino)-5,6-dimethylpyrimidine]
- d-Amphetamine potentiation (percentage potentiation of the effects of d-amphetamine) (effects of d-amphetamine): 76%
- inhibition in vivo at 50 mg/kg (reserpine-induced ptosis): 43.8%

SMILES: CCCCc1c(C)ncnc1Nc1ccc(Br)cc1 [compound 69, 4-(4-Bromoanilino)-5-n-butyl-6-methylpyrimidine]
- d-Amphetamine potentiation (percentage potentiation of the effects of d-amphetamine) (effects of d-amphetamine): 94%
